Test results as given in US20220347260A1, “Combination of An Agonist Anti-PD-1 Antibody With a GnRH Agonist or Antagonist to Treat Cancer” (Debiopharm International SA, priority 2017, published 2022).

Assays:
[1] = Phase I study Debio 8200-IMM-101, Patient A: serum testosterone levels; format: in vivo, human; conditions: baseline Day 1 15.7 nmol/L, castrate range <1.735 nmol/L
Method: The study involves 3 to 12 treatment cycles (depending on individual responses) of 28 days each. Patients receive triptorelin embonate (pamoate) 3.75 mg one-month formulation i.m. on day 1 of each 28-day cycle and nivolumab (Opdivo®) at 3 mg/kg body weight i.v. (1-hour infusion) on days 1 and 15 of each cycle. On day 1 of each cycle, triptorelin is administered prior to nivolumab. In addition, patients take bicalutamide 50 mg p.o. once daily for 28 days throughout cycle 1 only, to counteract the initial testosterone “flare” induced by triptorelin.
On 12 Jun. 2018 the patient was enrolled in the protocol Debio 8200-IMM-101 and received the first injections of triptorelin -anti-androgen bicalutamide was added for 28 days- and anti-PD-1 molecule nivolumab.
As expected due to triptorelin treatment, the serum testosterone levels of the patient decreased from a baseline (Day 1) level of 15.7 nmol/L on 12 Jun. 2018 to a very low castrate level of 0.6 nmol/L four weeks later 10 Jul. 2018 (Day 29), and have remained in the castrate range (i.e. <1.735 nmol/L) until the last value available to date of 0.69 nmol/L on 29 Oct. 2018 (Day 141).

melanoma = melanoma patients in phase II or III trials; in some cases for more than ten years; cited from earlier work
[2] = system: melanoma metastasis in the pancreas; assay: Patient A: prior pembrolizumab treatment, tumor response by PET-CT; format: in vivo, human
Method: A person (at screening on 23 May 2018) […] had been operated on 26 Sep. 2016 for left lung lobectomy for melanoma metastasis of unknown origin. On 21 Aug. 2017, biopsy of PET-CT (Positron emission tomography—computed tomography) detected a new melanoma metastasis in the pancreas. From 27 Sep. 2017 until 13 Mar. 2018 (last administration at Cycle 9) they were treated with anti-PD-1 molecule pembrolizumab. On 12 Dec. […] However, on 30 Mar. […] On 23 May 2018, the size of this unique pancreatic metastasis was 34 mm on CT-scan.

For CC(C)C[C@H](NC(=O)[C@@H](Cc1c[nH]c2ccccc12)NC(=O)[C@H](Cc1ccc(O)cc1)NC(=O)[C@H](CO)NC(=O)[C@H](Cc1c[nH]c2ccccc12)NC(=O)[C@H](Cc1c[nH]cn1)NC(=O)[C@@H]1CCC(=O)N1)C(=O)N[C@@H](CCCNC(=N)N)C(=O)N1CCC[C@H]1C(=O)NCC(N)=O [triptorelin, pyroGlu-His-Trp-Ser-Tyr-D-Trp-Leu-Arg-Pro-Gly-NH2], the serum testosterone level ([1]; Day 29 (10 Jul. 2018)) was 0.6 nmol/L and the serum testosterone level ([1]; Day 141 (29 Oct. 2018)) was 0.69 nmol/L.

For “Ipilimumab: fully human IgG1 CTLA-4-blocking monoclonal antibody from Bristol-Myers Squibb”, the “durable survival, patients” value (melanoma) is listed as “about 20%”.

With “pembrolizumab: humanized IgG4 monoclonal anti-PD-1 antibody from Merck” the tumor response ([2]; 12 Dec. 2017, pembrolizumab from 27 Sep. 2017 until 13 Mar. 2018) was “Partial Response (PR)” and the tumor response ([2]; 30 Mar. 2018, PET-CT, after Cycle 9 of pembrolizumab) was “progression (PD)”.
